# Data: patent US6921770B2 (priority 2000, dated 2005)
# Test system: rice blast fungi
# Type: in vivo, Pyricularia grisea
row,Structure (SMILES),Inhibiting Ratio (%) (at 250 ppm)
1,"Br.Cc1ccc(NC(=O)Cc2csc(=Nc3ccc(C)c(Cl)c3)n2C)cc1 [Compound 35, 2-(3-chloro-4-methylphenylimino)-3-methyl-4[N-(4-methylphenyl)carbamoylmethyl]-1,3-thiazol-4-ine hydrobromide]",100%
2,"Br.Cn1c(CC(=O)Nc2cccc(Cl)c2)csc1=Nc1cc(Cl)cc(Cl)c1 [Compound 21, 2-(3,5-dichlorophenylimino)-3-methyl-4-[N-(3-chlorophenyl)carbamoylmethyl]-1,3-thiazol-4-ine hydrobromide]",88%
3,"Cl.Cn1c(CC(=O)Nc2ccccc2F)csc1=Nc1ccccc1F [Compound 89, 2-(2-fluorophenylimino)-3-methyl-4-[N-(2-fluorophenyl)carbamoylmethyl]-1,3-thiazol-4-ine hydrochloride]",83%
4,"CC(C)Oc1cc(N=c2scc(CC(=O)Nc3ccc(Cl)cc3)n2C)c(F)cc1Cl.Cl [Compound 161, 2-(4-chloro-5-isopropoxy-2-fluorophenylimino)-3-methyl-4-[N-(4-chlorophenyl)carbamoylmethyl]-1,3-thiazol-4-ine hydrochloride]",86%
5,"Cl.Cn1c(CC(=O)Nc2ccc(Cl)cc2)csc1=Nc1ccc(C(F)(F)F)cc1 [Compound 98, 2-(4-trifluoromethylphenylimino)-3-methyl-4-[N-(4-chlorophenyl)carbamoylmethyl]-1,3-thiazol-4-ine hydrochloride]",96%
6,"Br.Cn1c(CC(=O)Nc2ccccc2)csc1=Nc1ccc(OC(F)(F)F)cc1 [Compound 39, 2-(4-trifluoromethoxyphenylimino)-3-methyl-4-(N-phenylcarbamoylmethyl)-1,3-thiazol-4-ine hydrobromide]",99%
7,"Cl.Cn1c(CC(=O)Nc2ccccc2F)csc1=Nc1ccc(F)c(Cl)c1 [Compound 149, 2-(3-chloro-4-fluorophenylimino)-3-methyl-4-[N-(2-fluorophenyl)carbamoylmethyl]-1,3-thiazol-4-ine hydrochloride]",95%
8,"Br.Cn1c(CC(=O)Nc2ccccc2)csc1=Nc1cc(C(F)(F)F)cc(C(F)(F)F)c1 [Compound 45, 2-(3,5-ditrifluoromethylphenylimino)-3-methyl-4-(N-phenylcarbamoylmethyl)-1,3-thiazol-4-ine hydrobromide]",93%
9,"Cl.Cn1c(CC(=O)Nc2ccc(Cl)cc2)csc1=Nc1ccc(F)c(Cl)c1 [Compound 155, 2-(3-chloro-4-fluorophenylimino)-3-methyl-4-[N-(4-chlorophenyl)carbamoylmethyl]-1,3-thiazol-4-ine hydrochloride]",96%
10,"Cc1ccc(NC(=O)Cc2csc(=Nc3ccc(Oc4ccccc4)cc3)n2C)cc1Cl.Cl [Compound 240, 3-methyl-2-(4-phenoxyphenylimino)-4-[N-(3-chloro-4-methylphenyl)carbamoylmethyl]-1,3-thiazol-4-ine hydrochloride]",88%
11,Br.Cc1ccc(NC(=O)Cc2csc(=Nc3ccc(C#N)cc3)n2C)cc1 [Compound 46],100%
12,"COc1ccc(N=c2scc(CC(=O)Nc3ccc(Cl)cc3)n2C)cc1.Cl [Compound 118, 2-(4-methoxyphenylimino)-3-methyl-4-[N-(4-chlorophenyl)carbamoylmethyl]-1,3-thiazol-4-ine hydrochloride]",99%
13,"CCCCc1ccc(N=c2scc(CC(=O)Nc3ccc(Br)cc3)n2C)cc1.Cl [Compound 147, 2-[4-(n-butyl)phenylimino]-3-methyl-4-[N-(4-bromophenyl)carbamoylmethyl]-1,3-thiazol-4-ine hydrochloride]",96%
